Reference: publication PMC6010071, “Blocking oestradiol synthesis pathways with potent and selective coumarin derivatives” (Journal of Enzyme Inhibition and Medicinal Chemistry, 2018)
Read-outs that look alike come from different tables or passages of the source.

Key:
Assay type in all cases: biochemical
[1] = target: T1, recombinant human HSD1 (Homo sapiens, UniProt P14061); experiment: HSD1 inhibition, HPLC assay of [3H]-E1 to [3H]-E2 conversion; conditions: for inhibition at 0.1 µM: average of two measurements; for inhibition at 0.1 µM / inhibition at 1 µM: except for compounds 8 and 9; for inhibition at 1 µM: average of three measurements; for IC50: estimated from three measurements at 1 µM, average ± standard error, read-out: HSD1 inhibition ∼ pIC50 (converted)
T1 construct: made in house; host or cells: Sf9 insect cells
T1 sequence (P14061 1-328): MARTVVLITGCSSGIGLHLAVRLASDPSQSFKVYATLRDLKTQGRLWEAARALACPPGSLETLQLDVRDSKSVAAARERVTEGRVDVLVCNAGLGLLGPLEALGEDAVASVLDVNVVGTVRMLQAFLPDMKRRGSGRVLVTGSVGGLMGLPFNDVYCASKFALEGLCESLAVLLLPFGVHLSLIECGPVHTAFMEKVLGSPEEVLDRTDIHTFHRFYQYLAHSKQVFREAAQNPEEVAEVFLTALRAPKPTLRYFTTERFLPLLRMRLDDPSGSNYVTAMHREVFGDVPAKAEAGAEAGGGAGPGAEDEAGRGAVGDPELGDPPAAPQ
Experimental: The inhibition was determined by HPLC using recombinant human HSD1 and HSD2 proteins as described in a prior study. In short, recombinant human HSD1 and HSD2 were produced in Sf9-insect cells. […] After incubation, the reaction was stopped by addition of […] 10% trichloroacetic acid per sample. […] The ratio of [3H]-E1 converted to [3H]-E2 or vice versa determines the conversion percentage of the samples. Inhibition was measured in three concentrations (100 nM, 1, and 5 µM) in order to follow the progression of inhibition efficiencies. Inhibition efficiencies of the tested inhibitors were calculated by comparing the conversion percentages of the samples including inhibitors with those of conversion controls (without inhibitors).

[2] = target: T2, MAO-A (Homo sapiens, UniProt P21397); experiment: MAO-A inhibition, continuous spectrophotometric assay; conditions: read-out: MAO-A inhibition at 100 µM
T2 construct: purchased Sigma-Aldrich (St. Louis, MO)
T2 sequence (P21397 1-527): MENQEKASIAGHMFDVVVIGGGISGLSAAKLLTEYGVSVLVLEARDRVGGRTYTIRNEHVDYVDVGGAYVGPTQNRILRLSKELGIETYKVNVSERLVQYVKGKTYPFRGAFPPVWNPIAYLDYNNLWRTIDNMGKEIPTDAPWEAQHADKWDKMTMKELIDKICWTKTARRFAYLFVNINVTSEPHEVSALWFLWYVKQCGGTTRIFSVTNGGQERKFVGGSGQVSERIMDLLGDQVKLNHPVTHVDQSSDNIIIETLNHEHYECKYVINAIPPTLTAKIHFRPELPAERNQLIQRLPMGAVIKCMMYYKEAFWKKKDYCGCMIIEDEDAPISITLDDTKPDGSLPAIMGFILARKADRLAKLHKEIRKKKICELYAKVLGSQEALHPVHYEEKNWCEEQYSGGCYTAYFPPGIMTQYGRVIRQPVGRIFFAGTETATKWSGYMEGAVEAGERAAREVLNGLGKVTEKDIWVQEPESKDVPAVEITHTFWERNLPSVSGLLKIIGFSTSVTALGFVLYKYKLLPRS
Experimental: The protocol of continuous spectrophotometric assay by Holt et al. was first used to determine the activity of the proteins. […] The protein was first incubated for 30 min at 37 °C in the chromogenic solution and then the substrate tyramine was introduced at 0.5 mM final plate concentration completing the assay volume. […] The assay should produce absorbance change of ∼0.35[23]. […] These protein concentrations were selected to be used to analyse the molecules 1–9. The analysis conditions followed the above-described assay protocol[23] and the activity of tested molecules was measured at 100 µM for MAO-A and at 10 µM for MAO-B. The analysis was performed as single point measurements and the signal was read by the same instrument at the expected assay maximum indicated by the activity measurements, at 30 min for MAO-A and at 2 h for MAO-B, respectively. […] The observed activity was calculated as inhibition percentage (Table 1).

[3] = target: T3, Aromatase (CYP19A1), human placental microsomes (Homo sapiens, UniProt P11511); experiment: Aromatase activity, [3H]-H2O release from [3H]-androstenedione; conditions: 50 nM [3H]-androstenedione; inhibitor 60–1000 nM; read-out: Aromatase inhibition ∼ pIC50 (converted)
T3 construct: by using human placental microsomes; from tissue; host or cells: human placental microsomes
T3 sequence (P11511 1-503): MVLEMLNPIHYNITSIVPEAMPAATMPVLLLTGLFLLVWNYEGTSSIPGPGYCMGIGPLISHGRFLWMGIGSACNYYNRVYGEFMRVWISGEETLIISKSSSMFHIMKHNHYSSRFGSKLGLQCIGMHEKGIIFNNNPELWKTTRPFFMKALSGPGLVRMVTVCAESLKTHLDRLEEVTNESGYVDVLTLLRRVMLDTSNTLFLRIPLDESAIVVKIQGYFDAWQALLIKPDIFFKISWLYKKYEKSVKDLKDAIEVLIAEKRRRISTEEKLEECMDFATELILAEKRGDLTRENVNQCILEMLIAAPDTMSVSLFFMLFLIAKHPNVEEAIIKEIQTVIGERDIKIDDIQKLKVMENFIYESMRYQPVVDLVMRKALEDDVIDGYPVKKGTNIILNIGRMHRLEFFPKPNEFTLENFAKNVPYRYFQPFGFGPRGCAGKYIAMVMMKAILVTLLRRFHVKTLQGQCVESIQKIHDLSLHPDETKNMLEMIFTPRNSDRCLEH
Experimental: Aromatase (CYP19A1) activity was measured as described previously[22] by using human placental microsomes and 50 nM [3H]-androstenedione as a substrate and inhibitor concentrations in the range of 60–1000 nM. Aromatase activities were measured as released [3H]-H2O in Optiphase Hisafe 2 scintillation liquid (Perkin Elmer, Waltham, MA) with a Wallac 1450 MicroBeta Trilux scintillation counter (Perkin Elmer, Waltham, MA). As a positive control for aromatase inhibition, 1 µM finrozole (generous gift from Olavi Pelkonen, University of Oulu, Finland) was used.

[4] = 100 nM, read-out: HSD1 inhibition at 100 nM
[5] = 1 µM, read-out: HSD1 inhibition at 1 µM
[6] = 5 µM, read-out: HSD1 inhibition at 5 µM
[7] = 100 µM, single point, read at 30 min

Row | SMILES | inhibition at 0.1 µM [1, 4] [%] | inhibition at 1 µM [1, 5] [%] | inhibition at 5 µM [1, 6] [%] | IC50 [1] [nM] | inhibition at 100 µM [2, 7] [%] | IC50 [3] [nM] | inhibition at 0.1 µM ([1]; read-out: HSD1 inhibition at 100 nM, 100 nM) [%] | inhibition at 1 µM ([1]; read-out: HSD1 inhibition at 1 µM, 1 µM) [%] | inhibition at 5 µM ([1]; read-out: HSD1 inhibition at 5 µM, 5 µM) [%] | inhibition at 100 µM [2] [%]
1 | COc1ccc(-c2cc3cccc(O)c3oc2=O)cc1 [Compound 1, 8-hydroxy-3–(4-methoxyphenyl)-2H-chromen-2-one] | 16 | ≥ 68 | 88 | 501 | 4 | > 1000 | – | – | – | –
2 | O=c1oc2ccc(O)cc2cc1-c1ccc(O)cc1 [Compound 2, 6-hydroxy-3–(4-hydroxyphenyl)-2H-chromen-2-one] | – | – | – | 631 | – | > 1000 | 26 | ≥ 68 | 83 | -6
3 | O=c1oc2ccccc2cc1-c1cccc(O)c1 [Compound 3, 3–(3-hydroxyphenyl)-2H-chromen-2-one] | 7 | 47 | 76 | 1260 | 4 | > 1000 | – | – | – | –

Continued, in another order:

Row | inhibition at 0.1 µM [1, 4] [%] | inhibition at 1 µM [1, 5] [%] | inhibition at 5 µM [1, 6] [%] | IC50 [1] [nM] | inhibition at 100 µM [2, 7] [%] | IC50 [3] [nM] | SMILES | inhibition at 0.1 µM ([1]; read-out: HSD1 inhibition at 100 nM, 100 nM) [%] | inhibition at 1 µM ([1]; read-out: HSD1 inhibition at 1 µM, 1 µM) [%] | inhibition at 5 µM ([1]; read-out: HSD1 inhibition at 5 µM, 5 µM) [%] | inhibition at 100 µM [2] [%]
4 | 47 | ≥ 68 | 95 | 158 | – | > 1000 | O=c1oc2ccc(Cl)cc2cc1-c1cccc(O)c1 [Compound 4, 6-chloro-3–(3-hydroxyphenyl)-2H-chromen-2-one] | – | – | – | –
5 | 14 | 23 | 27 | 3980 | -1 | > 1000 | COc1ccc2cc(-c3ccc(O)c(F)c3)c(=O)oc2c1 [Compound 6, 3–(3-fluoro-4-hydroxyphenyl)-7-methoxy-2H-chromen-2-one] | – | – | – | –
6 | 16 | 39 | 62 | 1580 | -11 | > 1000 | COc1ccc2oc(=O)c(-c3ccc(O)c(F)c3)cc2c1 [Compound 7, 3–(3-fluoro-4-hydroxyphenyl)-6-methoxy-2H-chromen-2-one] | – | – | – | –
